In US8334313B2, “Ureido substituted benzoic acid compounds and their use for nonsense suppression and the treatment of disease” (PTC Therapeutics, Inc., priority 2002, dated 2012):

Each molecule was assayed on luciferase reporter construct containing a UGA premature termination codon (assay: cell-based luciferase reporter assay (nonsense suppression / readthrough)). Settings: ranking combining potency and efficacy of protein synthesis; UGA luciferase reporter stably transfected in 293T Human Embryonic Kidney cells.
Design: key: *****: both extremely high potency and extremely high efficacy of protein synthesis; ****: extremely high potency of protein synthesis and very high efficacy; ****: very high potency of protein synthesis and extremely high efficacy; ***: both very high potency and very high efficacy of protein synthesis; **: very high potency of protein synthesis and significant efficacy; **: significant potency of protein synthesis and very high efficacy; *: significant potency and efficacy of protein synthesis
Description: Activity measurements in Table I were performed in a cell-based luciferase reporter assay (as described in Section 4.2) comprising a luciferase reporter construct containing a UGA premature termination codon that was stably transfected in 293T Human Embryonic Kidney cells. A small molecule (3-[3-(4-Isopropyl-phenyl)-2,5-dioxoimidazolidin-1-yl]-benzoic acid) known to allow readthrough of premature termination codons, was used as an internal standard. Activity measurements are based on the qualitative relation between the minimum concentration of compound required to produce a given protein in a cell (potency) and the maximum amount of protein produced by the cell (efficacy). Potency and efficacy activities are ranked as either extremely high, very high or significant.
The test compounds identified in the nonsense suppression assay (for convenience referred to herein as a “lead” compound) can be tested for biological activity using host cells containing or engineered to contain the target RNA element coupled to a functional readout system. For example, the lead compound can be tested in a host cell engineered to contain the RNA with the premature translation termination codon controlling the expression of a reporter gene. In this example, the lead compounds are assayed in the presence or absence of the RNA with the premature translation termination codon. Compounds that modulate premature translation termination and/or nonsense-mediated mRNA decay in vivo will result in increased expression of the full-length gene, i.e., past the premature termination codon. Alternatively, a phenotypic or physiological readout can be used to assess activity of the target RNA with the premature translation termination codon in the presence and absence of the lead compound. Both the in vitro and in vivo nonsense suppression assays used herein and as described in International Patent Publication WO 01/44516, which is incorporated by reference in its entirety, can be used to identify lead compounds can also be used to determine an EC50 for the lead compounds.
A stable cell line harboring the […] nonsense-containing luciferase gene is treated with a test compound. Cells are grown in standard medium supplemented with 1% penicillin-streptomycin (P/S) and 10% fetal bovine serum (FBS) to 70% confluency and split 1:1 the day before treatment. The next day, cells are trypsinized and 40,000 cells are added to each well of a 96-well tissue culture dish. Serial dilutions of each compound are prepared to generate a six-point dose response curve spanning 2 logs ([…]). The final concentration of the DMSO solvent remains constant at 1% in each well. Cells treated with 1% DMSO serve as the background standard, and cells treated with gentamicin serve as a positive control.
In the case of `CC(C)c1ccc(N2CC(=O)N(c3cccc(C(=O)O)c3)C2=O)cc1` [Compound 1, 3-[3-(4-isopropyl-phenyl)-2,5-dioxo-imidazolidin-1-yl]-benzoic acid], the Activity is reported as “***”.
In the case of `O=C(O)c1cccc(N2C(=O)CN(c3ccc(-c4ccccc4)cc3)C2=O)c1` [Compound 2], the Activity is reported as “***”.
In the case of `O=C(O)c1cccc(N2C(=O)CN(c3ccc(Oc4ccccc4)cc3)C2=O)c1` [Compound 3, 3-[2,5-dioxo-3-(4-phenoxy-phenyl)-imidazolidin-1-yl]-benzoic acid], the Activity is reported as “**”.
For `CC(C)c1ccc(N(CC(=O)[O-])C(=O)Nc2cccc(C(=O)[O-])c2)cc1.[Na+].[Na+]` [Compound 4, 3-[3-carboxymethyl-3-(4-isopropyl-phenyl)-ureido]-benzoic acid disodium salt], the Activity was “***”.
For `O=C(O)c1cccc(N2C(=O)CN(Cc3ccccc3Cl)C2=O)c1` [Compound 5, 3-[3-(2-chloro-benzyl)-2,5-dioxo-imidazolidin-1-yl]-benzoic acid], the Activity was “***”.
`O=C(O)c1cccc(N2C(=O)CN(CC3CCCCC3)C2=O)c1` [Compound 6, 3-(3-cyclohexylmethyl-2,5-dioxo-imidazolidin-1-yl)-benzoic acid] was tested, and the Activity was “*”.
`CC(C)c1ccc(N2CCCN(c3cccc(C(=O)O)c3)S2(=O)=O)cc1` [Compound 7, 3-[6-(4-isopropyl-phenyl)-1,1-dioxo-1l6-[1,2,6]-thiadiazinan-2-yl]-benzoic acid] was tested, and the Activity was “*”.
With `CC(C)c1ccc(NC(=O)Nc2cccc(C(=O)O)c2)cc1` [Compound 8, 3-[3-(4-isopropyl-phenyl)-ureido]-benzoic acid] the Activity was “***”.
In the case of `CC(C)c1ccc(N2C(=O)CN(c3cccc(C(=O)O)c3)C2=O)cc1` [Compound 9, 3-[3-(4-isopropyl-phenyl)-2,4-dioxo-imidazolidin-1-yl]-benzoic acid], the Activity is reported as “**”.
In the case of `O=C(O)c1cccc(N2CC(=O)N(c3ccccc3F)C2=O)c1` [Compound 10, 3-[3-(2-fluoro-phenyl)-2,4-dioxo-imidazolidin-1-yl]-benzoic acid], the Activity is reported as “*”.
`COc1cccc(N2C(=O)CN(c3cccc(C(=O)O)c3)C2=O)c1` [Compound 11, 3-[3-(3-methoxy-phenyl)-2,4-dioxo-imidazolidin-1-yl]-benzoic acid] was tested, and the Activity was “*”.
For `O=C(O)c1cccc(N2CC(=O)N(c3ccc(Oc4ccccc4)cc3)C2=O)c1` [Compound 12, 3-[2,4-dioxo-3-(4-phenoxy-phenyl)-imidazolidin-1-yl]-benzoic acid], the Activity was “*”.
In the case of `O=C(O)c1cccc(N2C(=O)CN(CC3CCCO3)C2=O)c1` (stereo not drawn) [Compound 13, 3-[2,5-dioxo-3-(tetrahydro-furan-2-ylmeethyl)-imidazolidin-1-yl]-benzoic acid], the Activity is reported as “*”.
In the case of `COc1ccccc1CN1CC(=O)N(c2cccc(C(=O)O)c2)C1=O` [Compound 14, 3-[3-(2-methoxy-benzyl)-2,5-dioxo-imidazolidin-1-yl]-benzoic acid], the Activity is reported as “*”.
`CC(C)c1ccc(N2CCN(c3cccc(C(=O)O)c3)S2(=O)=O)cc1` [Compound 15, 3-[5-(4-isopropyl-phenyl)-1,1-dioxo-1l6-[1,2,5]-thiadiazolidin-2-yl]-benzoic acid] was tested, and the Activity was “**”.
With `O=C(O)c1cccc(N2C(=O)CN(c3ccc(Cc4ccccc4)cc3)C2=O)c1` [Compound 16, 3-[3-(4-benzyl-phenyl)-2,5-dioxo-imidazolidin-1-yl]-benzoic acid] the Activity was “*”.
In the case of `CCOC(=O)c1ccc(N2C(=O)CN(c3cccc(C(=O)O)c3)C2=O)cc1` [Compound 17, 3-[3-(4-formyl-ethylester-phenyl)-2,4-dioxo-imidazolidin-1-yl]-benzoic acid], the Activity is reported as “*”.
In the case of `O=C(O)c1cccc(N2C(=O)CN(c3cccc(Br)c3)C2=O)c1` [Compound 18, 3-[3-(3-bromo-phenyl)-2,5-dioxo-imidazolidin-1-yl]-benzoic acid], the Activity is reported as “*”.
In the case of `O=C(NCc1ccc(Br)cc1)Nc1cccc(C(=O)O)c1` [Compound 20, 3-[3-(4-bromo-benzyl)-ureido]-benzoic acid], the Activity is reported as “*”.
`O=C(NCc1ccc(Cl)cc1Cl)Nc1cccc(C(=O)O)c1` [Compound 21, 3-[3-(2,4-dichloro-benzyl)-ureido]-benzoic acid] was tested, and the Activity was “*”.
For `O=C(Nc1ccc(Br)cc1)Nc1cccc(C(=O)O)c1` [Compound 22, 3-[3-(4-bromo-phenyl)-ureido]-benzoic acid], the Activity was “*”.
For `O=C(O)c1cccc(N2C(=O)CN(c3ccc(I)cc3)C2=O)c1` [Compound 23, 3-[3-(4-iodo-phenyl)-2,5-dioxo-imidazolidin-1-yl]-benzoic acid], the Activity was “***”.
In the case of `O=C(O)c1cccc(N2CC(=O)N(c3cccc(Cl)c3Cl)C2=O)c1` [Compound 24, 3-[3-(2,3-dichloro-phenyl)-2,4-dioxo-imidazolidin-1yl]-benzoic acid], the Activity is reported as “*”.
For `COC(=O)c1ccc(N2CC(=O)N(c3cccc(C(=O)O)c3)C2=O)cc1` [Compound 25, 3-[3-(4-methoxycarbonylphenyl)-2,5-dioxoimidazolidin-1-yl]-benzoic acid], the Activity was “*”.
`Cc1ccc(N2CC(=O)N(c3cccc(C(=O)O)c3)C2=O)cc1` [Compound 26, 3-(2,5-Dioxo-3-p-tolylimidazolidin-1-yl)-benzoic acid] was tested, and the Activity was “*”.
In the case of `CCOc1ccc(N2CC(=O)N(c3cccc(C(=O)O)c3)C2=O)cc1` [Compound 27, 3-[3-(4-Ethoxy-phenyl)-2,5-dioxo-imidazolin-1-yl]-benzoic acid], the Activity is reported as “*”.
For `CC(C)(C)c1ccc(N2CC(=O)N(c3cccc(C(=O)O)c3)C2=O)cc1` [Compound 28, 3-[3-(4-tert-Butylphenyl)-2,5-dioxoimidazolidin-1-yl]-benzoic acid], the Activity was “**”.
`O=C(O)c1cccc(N2C(=O)CN(c3ccc(Br)cc3)C2=O)c1` [Compound 29, 3-[3-(4-Bromo-phenyl)-2,5-dioxo-imidazolidin-1-yl]-benzoic acid] was tested, and the Activity was “*”.
In the case of `O=C(O)c1cccc(N2C(=O)CN(c3ccc(OC(F)(F)F)cc3)C2=O)c1` [Compound 30, 3-[2,5-Dioxo-3-(4-trifluoromethoxy-phenyl)-imidazolidin-1-yl]-benzoic acid], the Activity is reported as “*”.
In the case of `CC(C)(C)c1ccc(NC(=O)Nc2cccc(C(=O)O)c2)cc1` [Compound 33, 3-[3-(4-tert-Butylphenyl)-ureido]-benzoic acid], the Activity is reported as “**”.
In the case of `CC(C)c1ccc(N2CCN(c3cccc(C(=O)O)c3)C2=O)cc1` [Compound 34, 3-[3-(4-Isopropyl-phenyl)-2-oxo-imidazolidin-1-yl]-benzoic acid], the Activity is reported as “*****”.
For `CC(C)c1ccc(-n2ccn(-c3cccc(C(=O)O)c3)c2=O)cc1` [Compound 35, 3-[3-(4-Isopropyl-phenyl)-2-oxo-2,3-dihydro-imidazol-1-yl]-benzoic acid], the Activity was “***”.
In the case of `CC(C)c1cccc(N2CCN(c3cccc(C(=O)O)c3)C2=O)c1` [Compound 36, 3-[3-(3-Isopropyl-phenyl)-2-oxo-imidazolidin-1-yl]-benzoic acid], the Activity is reported as “****”.
`CC(C)c1ccc(-n2ccn(-c3cccc(C(=O)O)c3)c2=S)cc1` [Compound 37, 3-[3-(4-Isopropyl-phenyl)-2-thioxo-2,3-dihydro-imidazol-1-yl]-benzoic acid] was tested, and the Activity was “*”.
With `O=C(O)c1cccc(N2CCN(c3ccc(OC(F)(F)F)cc3)C2=O)c1` [Compound 38, 3-[2-Oxo-3-(4-trifluoro-methoxy-phenyl)-imidazolidin-1-yl]-benzoic acid] the Activity was “*****”.
`O=C(O)c1cccc(N2CCN(c3ccc(OC(F)F)cc3)C2=O)c1` [Compound 39, 3-[3-(4-Difluoromethoxy-phenyl)-2-oxo-imidazolidin-1-yl]-benzoic acid] was tested, and the Activity was “*****”.
`CC(C)Oc1ccc(N2CCN(c3cccc(C(=O)O)c3)C2=O)cc1` [Compound 40, 3-[3-(4-Isopropoxy-phenyl)-2-oxo-imidazolidin-1-yl]-benzoic acid] was tested, and the Activity was “*****”.
For `O=C(O)c1cccc(N2CCN(c3ccc4c(c3)OCO4)C2=O)c1` [Compound 41, 3-(3-Benzo[1,3]dioxol-5-yl-2-oxo-imidazolidin-1-yl)-benzoic acid], the Activity was “*****”.
In the case of `O=C(O)c1cccc(N2CCN(c3ccc4c(c3)OCCO4)C2=O)c1` [Compound 42, 3-[3-(2,3-Dihydro-benzo[1,4]dioxin-6-yl)-2-oxo-imidazolidin-1-yl]-benzoic acid], the Activity is reported as “*****”.
